Data taken from patent US4138485A, “Phenylalanine derivatives” (Kyowa Hakko Kogyo Kabushiki Kaisha, priority 1976, dated 1979).

How the values were obtained:
Acute toxicity in mice = settings: in vivo, mouse, after one week
Experimental: (§1) (1) Acute toxicity and tonic convulsion in hind paw:
(§2) The acute toxicity and tonic convulsion occured by stimulus by hand touch were determined in the following manner to give the results shown in Table 2.
(a) Acute toxicity in mice:
38 Groups, each consisting of 5 mice (male dd-strain, weight -- 18 to 24 g), were used for the test and control groups. The compounds shown in Table 2 were administered orally or intraperitoneally to the mice. After one week, the survival ratio was measured.

[1] = system: hyperlipemia induced by Triton; test: Cholesterol-lowering activity on hyperlipemia induced by Triton in mice; assay type: in vivo, mice (male dd-strain); settings: Mus musculus, po, 43 h, read-out: Ratio of the reduction of cholesterol
Experimental: (2) Cholesterol-Lowering activity on hyperlipemia induced by Triton in mice:
38 Groups, each consisting of 9 mice (male dd-strain, weight -- 19 to 21 g), were used for the test and control groups. […] Immediately after the administration and also after 20 hours from the administration of Triton, the mice were orally administered with 100 mg/kg of the compound shown in Table 3. 43 hours after the administration of Triton, the blood samples were collected by decapitation and then the corpuscle was removed by centrifugation. Cholesterol in the serum was determined by Zurkowski's method modified by Shibata (color of the test solution was developed by using sulfoalicyclic acid, acetic acid and sulfuric acid and the optical density of the solution was determined at 620 mμ.

Acute toxicity in rats = settings: in vivo; rat, oral administration, after one week; read-out: Acute Toxicity (LD50), C
Experimental: as §1, §2
(b) Acute toxicity in rats:
28 Groups, each consisting of 5 rats (male Wistar strain, weight -- 200 g), were used for the test and control groups. The compounds shown in Table 2 were orally administered to the rats. After one week, the survival ratio was measured.

Cholesterol in the serum = test: Cholesterol-lowering activity on normal rats of Wistar strain (serum cholesterol, liver weight); assay type: in vivo, rats (male Wistar strain); settings: continuous administration for 4 days, 0.3% in diet
Experimental: (3) Cholesteral-lowering activity on normal rats of Wistar strain:
(i) 22 Groups, each consisting of 5 rats (male Wistar strain, weight -- 150 to 180 g) were used for the test and control groups. After this, the blood samples were collected by decapitation and then the corpuscle was removed by centrifugation. Cholesterol in the serum was determined by Zurkowski's method modified by Shibata and also the liver was excised and weighed. The results are shown in Table 4 wherein the ratio of 100% denotes the amount of chloresterol and the weight of the liver of normal rats fed with powdery diet without the addition of the compound.

[2] = oral administration, read-out: Acute Toxicity (LD50), A
[3] = ip, intraperitoneal administration, read-out: Acute Toxicity (LD50), B

Row | Structure (SMILES) | LD50 at 168 h (Acute toxicity in mice; [2]) [mg/kg] | inhibition in vivo at 100 mg/kg [1] [%] | LD50 at 168 h (Acute toxicity in mice; [3]) [mg/kg] | LD50 at 168 h (Acute toxicity in rats) [mg/kg] | B - Ratio of decrease of liver weight (Cholesterol in the serum) [%]
1 | Cc1ccc(CSC(=O)NC(Cc2ccccc2)C(=O)O)cc1 (racemic) [Compound 35, N-(4-methylbenzylthiocarbonyl)-DL-phenylalanine] | > 1000 | 22 | – | – | –
2 | COC(=O)[C@H](Cc1ccccc1)NC(=O)[C@H](Cc1ccccc1)NC(=O)SCc1ccc(Cl)cc1 [Compound 11, N-(4-chlorobenzylthiocarbonyl)-L-phenylalanyl-L-phenylalanine methylester] | > 300 | 75 | > 100 | > 100 | –
3 | Cc1ccc(C)c(CSC(=O)N[C@@H](Cc2ccccc2)C(=O)O)c1 [Compound 26, N-(2,5-dimethylbenzylthiocarbonyl)-L-phenylalanine] | > 1000 | 43 | – | > 100 | 0.8
4 | CCNC(=O)[C@H](Cc1ccccc1)NC(=O)SCc1ccc(C)cc1 [Compound 5, N-(4-methylbenzylthiocarbonyl)-L-phenylalanine ethylamide] | > 1000 | 0 | > 100 | > 100 | –
5 | COC(=O)[C@H](Cc1ccccc1)NC(=O)SCc1ccc(OC)cc1 [Compound 13, N-(4-methoxybenzylthiocarbonyl)-L-phenylalanine methylester] | > 1000 | 56 | > 100 | > 100 | 38
6 | COC(=O)[C@H](Cc1ccccc1)NC(=O)[C@H](Cc1ccccc1)NC(=O)SCc1ccc(C)cc1 [Compound 6, N-(4-methylbenzylthiocarbonyl)-L-phenylalanyl-L-phenylalanine methylester] | > 300 | 39 | > 100 | > 100 | –
7 | CCOC(=O)[C@H](Cc1ccccc1)NC(=O)SCc1ccc(C)cc1 [Compound 3, N-(4-methylbenzylthiocarbonyl)-L-phenylalanine ethylester] | > 1000 | 57 | – | – | –
8 | CC(C)(C)c1ccc(CSC(=O)N[C@@H](Cc2ccccc2)C(=O)O)cc1 [Compound 28, N-(4-tert-butylbenzylthiocarbonyl)-L-phenylalanine] | > 1000 | 50 | – | > 100 | 10.6
9 | COC(=O)[C@H](Cc1ccccc1)NC(=O)SCc1c(C)cccc1C [Compound 25] | > 1000 | 37 | – | > 100 | 45.3
10 | Cc1cccc(C)c1CSC(=O)N[C@@H](Cc1ccccc1)C(=O)O [Compound 24, N-(2,6-dimethylbenzylthiocarbonyl)-L-phenylalanine] | > 1000 | 34 | – | > 100 | 15.0
11 | O=C(N[C@@H](Cc1ccccc1)C(=O)O)SCc1ccc([N+](=O)[O-])cc1 [Compound 14, N-(4-nitrobenzylthiocarbonyl)-L-phenylalanine] | > 1000 | 66 | – | > 100 | 48.0
12 | O=C(N[C@@H](Cc1ccccc1)C(=O)O)SCc1cccc2ccccc12 [Compound 31, N-(α-naphthylmethylthiocarbonyl)-L-phenylalanine] | > 1000 | 74 | – | > 100 | 24.4
13 | O=C(N[C@@H](Cc1ccccc1)C(=O)O)SCc1ccc(F)cc1 [Compound 33, N-(4-fluorobenzylthiocarbonyl)-L-phenylalanine] | > 1000 | 79 | – | – | –
14 | CCNC(=O)[C@H](Cc1ccccc1)NC(=O)SCc1ccc(Cl)cc1 [Compound 10, N-(4-chlorobenzylthiocarbonyl)-L-phenylalanine ethylamide] | > 300 | 43 | > 100 | > 100 | –
15 | COC(=O)[C@H](Cc1ccccc1)NC(=O)SCc1cc(C)ccc1C [Compound 27, N-(2,5-dimethylbenzylthiocarbonyl)-L-phenylalanine methylester] | > 1000 | 30 | – | > 100 | -0.2
16 | COC(=O)[C@H](Cc1ccccc1)NC(=O)SCc1c(C)c(C)c(C)c(C)c1C [Compound 30, N-(2,3,4,5,6-pentamethylbenzylthiocarbonyl)-L-phenylalanine methylester] | > 1000 | 68 | – | > 100 | 11.0
17 | CC(=O)Oc1ccc(CSC(=O)N[C@@H](Cc2ccccc2)C(=O)O)cc1 [Compound 36, N-(4-acetoxybenzylthiocarbonyl)-L-phenylalanine] | > 1000 | 83 | – | – | –
18 | Cc1ccc(CSC(=O)N[C@@H](Cc2ccccc2)C(N)=O)cc1 [Compound 4, N-(4-methylbenzylthiocarbonyl)-L-phenylalanine amide] | > 1000 | 23 | > 100 | > 100 | 6.2
19 | COC(=O)C(Cc1ccccc1)NC(=O)SCc1ccccc1 (racemic) [Compound 19, N-benzylthiocarbonyl-D,L-phenylalanine methylester] | > 1000 | 84 | – | > 100 | 19.8
20 | COC(=O)[C@H](Cc1ccccc1)NC(=O)SCc1cccc(C)c1 [Compound 23, N-(3-methylbenzylthiocarbonyl)-L-phenylalanine methylester] | > 1000 | 48 | – | – | –
21 | Cc1ccc(CSC(=O)N[C@H](Cc2ccccc2)C(=O)O)cc1 [Compound 34, N-(4-methylbenzylthiocarbonyl)-D-phenylalanine] | > 1000 | 11 | – | – | –
22 | Cc1c(C)c(C)c(CSC(=O)N[C@@H](Cc2ccccc2)C(=O)O)c(C)c1C [Compound 29, N-(2,3,4,5,6-pentamethylbenzylthiocarbonyl)-L-phenylalanine] | > 1000 | 59 | – | > 100 | –
23 | COC(=O)[C@H](Cc1ccccc1)NC(=O)SCc1ccc(Cl)cc1 [Compound 8, N-(4-chlorobenzylthiocarbonyl)-L-phenylalanine methylester] | > 4000 | 88 | > 100 | > 200 | –
24 | O=C(N[C@@H](Cc1ccccc1)C(=O)O)SCc1ccc(Cl)cc1 [Compound 7, N-(4-chlorobenzylthiocarbonyl)-L-phenylalanine] | > 300 | 94 | > 100 | > 100 | –
25 | NC(=O)[C@H](Cc1ccccc1)NC(=O)SCc1ccc(Cl)cc1 [Compound 9, N-(4-chlorobenzylthiocarbonyl)-L-phenylalanine amide] | > 1000 | 57 | > 100 | > 100 | 71
26 | COC(=O)[C@H](Cc1ccccc1)NC(=O)SCc1ccc([N+](=O)[O-])cc1 [Compound 15, N-(4-nitrobenzylthiocarbonyl)-L-phenylalanine methylester] | > 1000 | 29 | – | > 100 | 38.9
27 | COC(=O)[C@H](Cc1ccccc1)NC(=O)SCc1cccc2ccccc12 [Compound 32] | > 1000 | 56 | – | > 100 | 12.4
28 | COC(=O)[C@H](Cc1ccccc1)NC(=O)SCc1ccc(O)cc1 [Compound 37, N-(4-hydroxybenzylthiocarbonyl)-L-phenylalanine methylester] | > 1000 | 74 | – | – | –
